Usually pIC50 stands for the negative decadic logarithm of the IC50, by convention in mol/L. Lower therefore signals a high IC50.

Molecules are shown by their SMILES. pIC50: −log10 of the molar value.

The target in this test is T1, human plasma protein factor Xa (Homo sapiens, UniProt P00742).
T1 construct: The human plasma protein factor Xa was purchased; purchased Haematologic Technologies (Essex Junction, Vt.); host or cells: human plasma
T1 sequence (P00742 235-488 limits assumed): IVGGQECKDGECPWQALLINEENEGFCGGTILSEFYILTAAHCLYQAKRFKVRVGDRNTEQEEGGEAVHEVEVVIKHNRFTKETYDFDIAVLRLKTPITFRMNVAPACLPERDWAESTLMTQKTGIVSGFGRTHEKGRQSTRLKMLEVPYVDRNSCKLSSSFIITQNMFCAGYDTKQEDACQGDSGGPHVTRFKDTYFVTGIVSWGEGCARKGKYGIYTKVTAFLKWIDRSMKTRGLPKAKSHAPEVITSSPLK
T1 sequence (P00742 41-179 partner limits assumed): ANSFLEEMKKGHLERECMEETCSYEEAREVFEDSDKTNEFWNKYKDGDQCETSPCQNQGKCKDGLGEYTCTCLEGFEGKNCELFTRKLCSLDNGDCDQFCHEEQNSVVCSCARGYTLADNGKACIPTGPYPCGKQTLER
The test is described as follows: Factor Xa IC50 determination (cleavage of paranitroanilide substrate S-2765). In kind it is biochemical. Particulars: factor Xa 1 nM, S-2765 100 μM, Tris buffered saline pH 7.4, read at 405 nm. An excerpt: This example illustrates methods for evaluating the compounds of the invention, along with results obtained for such assays. The in vitro and in vivo human Factor Xa activities of the inventive compounds can be determined by various procedures known in the art, such as a test for their ability to inhibit the activity of human plasma Factor Xa. […] The IC50 value is the concentration (in nM) of the compound required to provide 50% inhibition of human Factor Xa proteolytic activity.
An in vitro assay for detecting and measuring inhibition activity against Factor Xa is as follows:
The substrate S-2765 (Z-D-Arg-Gly-Arg-pNA.HCl) was obtained from Diapharma (West Chester, Ohio).
The human plasma protein factor Xa was purchased from Haematologic Technologies (Essex Junction, Vt.).
All assays, which are performed in 96-well microtiter plates, measure proteolytic activity of the enzyme (factor Xa) by following cleavage of a paranitroanilide peptide substrate. The assay buffer used for proteolytic assays was Tris buffered saline (20 mM Tris, 150 mM NaCl, 5 mM CaCl2, 0.1% Bovine serum albumin (BSA), 5% Dimethly Sulfoxide (DMSO) pH 7.4). In a 96-well microtiter plate, inhibitor was serially diluted to give a range of final concentrations from 0.01 nM to 10 μM. Duplicate sets of wells were assayed and control wells without inhibitor were included. Enzyme was added to each well, (factor Xa concentration=1 nM), the plate was shaken for 5 seconds and then incubated for 5 minutes at room temperature. S-2765 was added (100 μM final) and the plate was shaken for 5 seconds (final volume in each well was 200 μl). The degree of substrate hydrolysis was measured at 405 nm on a Thermomax plate reader (Molecular Devices, Sunnyvale, Calif.) for 2 minutes. The initial velocities of substrate cleavage (mOD/min), for each range of inhibitor concentrations, were fitted to a four parameter equation using Softmax data analysis software. The parameter C, derived from the resulting curve-fit, corresponded to the concentration for half maximal inhibition (IC50).
`CN(C)Cc1cc(-n2ccccc2=O)ccc1-n1cc(CNC(=O)c2ccc(Cl)s2)nn1` [Compound 121, 5-Chloro-N-((1-(2-((dimethylamino)methyl)-4-(2-oxopyridin-1(2H)-yl)phenyl)-1H-1,2,3-triazol-4-yl)methyl)thiophene-2-carboxamide] showed a pIC50 of at least 7.00. As to `NC(=O)C1CCN(c2cc(-n3ccccc3=O)ccc2-n2cc(CNC(=O)c3ccc(Cl)s3)nn2)CC1` [Compound 25, 1-(2-(4-((2-Chlorothiophene-5-carboxamido)methyl)-1H-1,2,3-triazol-1-yl)-5-(2-oxopyridin-1(2H)-yl)phenyl)piperidine-4-carboxamide], the pIC50 was at least 7.00. As to `O=C(NCc1cn(-c2ccc(-n3ccccc3=O)cc2OCCn2ccnc2)nn1)c1ccc(Cl)s1` [Compound 148, N-((1-(2-(2-(1H-Imidazol-1-yl)ethoxy)-4-(2-oxopyridin-1(2H)-yl)phenyl)-1H-1,2,3-triazol-4-yl)methyl)-5-chlorothiophene-2-carboxamide], the pIC50 is at least 7.00. Compound `CC(=N)N1CCN(c2cc(-n3ccccc3=O)ccc2-n2cc(CNC(=O)c3ccc(Cl)s3)nn2)CC1` [Compound 14, 5-Chloro-N-((1-(2-(4-(1-iminoethyl)piperazin-1-yl)-4-(2-oxopyridin-1(2H)-yl)phenyl)-1H-1,2,3-triazol-4-yl)methyl)thiophene-2-carboxamide] showed a pIC50 of at least 7.00. Consider `O=C(NCc1cn(-c2ccc(-n3ccccc3=O)cc2-c2ccnc(O)c2)nn1)c1ccc(Cl)s1` [Compound 137, 5-Chloro-N-((1-(2-(2-hydroxypyridin-4-yl)-4-(2-oxopyridin-1(2H)-yl)phenyl)-1H-1,2,3-triazol-4-yl)methyl)thiophene-2-carboxamide], for which the pIC50 is at least 7.00.

`O=C(NCc1cn(-c2ccc(-n3ccccc3=O)cc2N2CCSCC2)nn1)c1ccc(Cl)s1` [Compound 10, 5-Chloro-N-((1-(4-(2-oxopyridin-1(2H)-yl)-2-thiomorpholinophenyl)-1H-1,2,3-triazol-4-yl)methyl)thiophene-2-carboxamide] showed a pIC50 of at least 7.00. With `CN(C)c1cc(-n2ccccc2=O)ccc1-n1cc(CNC(=O)c2ccc(Cl)s2)nn1` [Compound 2, 5-Chloro-N-((1-(2-(dimethylamino)-4-(2-oxopyridin-1(2H)-yl)phenyl)-1H-1,2,3-triazol-4-yl)methyl)thiophene-2-carboxamide], the pIC50 was at least 7.00. Compound `O=C(NCc1cn(-c2ccc(-n3ccccc3=O)cc2OCCCOC(=O)N2CCOCC2)nn1)c1ccc(Cl)s1` [Compound 150, 3-(2-(4-((5-Chlorothiophene-2-carboxamido)methyl)-1H-1,2,3-triazol-1-yl)-5-(2-oxopyridin-1(2H)-yl)phenoxy)propyl morpholine-4-carboxylate] had a pIC50 of at least 7.00. `O=C(NCc1cn(-c2ccc(-n3ccccc3=O)cc2OCCn2cccn2)nn1)c1ccc(Cl)s1` [Compound 156, N-((1-(2-(2-(1H-Pyrazol-1-yl)ethoxy)-4-(2-oxopyridin-1(2H)-yl)phenyl)-1H-1,2,3-triazol-4-yl)methyl)-5-chlorothiophene-2-carboxamide] showed a pIC50 of at least 7.00. In the case of `CCS(=O)(=O)CCOc1cc(-n2ccccc2=O)ccc1-n1cc(CNC(=O)c2ccc(Cl)s2)nn1` [Compound 82, 5-Chloro-N-((1-(2-(2-(ethylsulfonyl)ethoxy)-4-(2-oxopyridin-1(2H)-yl)phenyl)-1H-1,2,3-triazol-4-yl)methyl)thiophene-2-carboxamide] it was at least 7.00; in that of `O=C(NCc1cn(-c2ccc(-n3ccccc3=O)cc2OCc2ccncc2)nn1)c1ccc(Cl)s1` [Compound 167, 5-Chloro-N-((1-(4-(2-oxopyridin-1(2H)-yl)-2-(pyridin-4-ylmethoxy)phenyl)-1H-1,2,3-triazol-4-yl)methyl)thiophene-2-carboxamide], at least 7.00; in that of `O=C(NCc1cn(-c2ccc(-n3ccccc3=O)cc2-c2ccnc(F)c2)nn1)c1ccc(Cl)s1` [Compound 134, 5-Chloro-N-((1-(2-(2-fluoropyridin-4-yl)-4-(2-oxopyridin-1(2H)-yl)phenyl)-1H-1,2,3-triazol-4-yl)methyl)thiophene-2-carboxamide], at least 7.00.

The compound `CN(C)CC[N+](C)(C)CCOc1cc(-n2ccccc2=O)ccc1-n1cc(CNC(=O)c2ccc(Cl)s2)nn1` [Compound 86] had a pIC50 of at least 7.00. With `O=C(NCc1cn(-c2ccc(-n3ccccc3=O)cc2C(=O)N2CCNCC2)nn1)c1ccc(Cl)s1` [Compound 113, 5-Chloro-N-((1-(4-(2-oxopyridin-1(2H)-yl)-2-(piperazine-1-carbonyl)phenyl)-1H-1,2,3-triazol-4-yl)methyl)thiophene-2-carboxamide], the pIC50 is 6.30 to 7.00. In turn, `CN(C)c1ccc(-c2cc(-n3ccccc3=O)ccc2-n2cc(CNC(=O)c3ccc(Cl)s3)nn2)cn1` [Compound 145, 5-Chloro-N-((1-(2-(6-(dimethylamino)pyridin-3-yl)-4-(2-oxopyridin-1(2H)-yl)phenyl)-1H-1,2,3-triazol-4-yl)methyl)thiophene-2-carboxamide] gave a pIC50 of at least 7.00. For the compound `O=C(NCc1cn(-c2ccc(-n3ccccc3=O)cc2OCCO)nn1)c1ccc(Cl)s1` [Compound 75, 5-Chloro-N-((1-(2-(2-hydroxyethoxy)-4-(2-oxopyridin-1(2H)-yl)phenyl)-1H-1,2,3-triazol-4-yl)methyl)thiophene-2-carboxamide], the pIC50 was at least 7.00. `O=C(NCc1cn(-c2ccc(-n3ccccc3=O)cc2N2CCC(C(=O)O)CC2)nn1)c1ccc(Cl)s1` [Compound 24, 1-(2-(4-((2-Chlorothiophene-5-carboxamido)methyl)-1H-1,2,3-triazol-1-yl)-5-(2-oxopyridin-1(2H)-yl)phenyl)piperidine-4-carboxylic acid] gave a pIC50 of at least 7.00. As to `NCCCNC(=O)c1cc(-n2ccccc2=O)ccc1-n1cc(CNC(=O)c2ccc(Cl)s2)nn1` [Compound 112, N-((1-(2-(3-aminopropylcarbamoyl)-4-(2-oxopyridin-1(2H)-yl)phenyl)-1H-1,2,3-triazol-4-yl)methyl)-5-chlorothiophene-2-carboxamide], the pIC50 is 6.30 to 7.00. `O=C(NCc1nnn(-c2ccc(-n3ccccc3=O)cc2OCCCO)c1I)c1ccc(Cl)s1` [Compound 153, 5-Chloro-N-((1-(2-(3-hydroxypropoxy)-4-(2-oxopyridin-1(2H)-yl)phenyl)-5-iodo-1H-1,2,3-triazol-4-yl)methyl)thiophene-2-carboxamide] had a pIC50 of 6.30 to 7.00. In the case of `NCCSc1cc(-n2ccccc2=O)ccc1-n1cc(CNC(=O)c2ccc(Cl)s2)nn1` [Compound 53, N-((1-(2-(2-Aminoethylthio)-4-(2-oxopyridin-1(2H)-yl)phenyl)-lH-1,2,3-triazol-4-yl)methyl)-5-chlorothiophene-2-carboxamide] it was at least 7.00; in that of `O=C(NCc1cn(-c2ccc(-n3ccccc3=O)cc2N2CCCC2=O)nn1)c1ccc(Cl)s1` [Compound 43, 5-Chloro-N-((1-(4-(2-oxopyridin-1(2H)-yl)-2-(2-oxopyrrolidin-1-yl)phenyl)-1H-1,2,3-triazol-4-yl)methyl)thiophene-2-carboxamide], at least 7.00; in that of `NCC[S+]([O-])c1cc(-n2ccccc2=O)ccc1-n1cc(CNC(=O)c2ccc(Cl)s2)nn1` (stereo not shown) [Compound 54, N-((1-(2-(2-Aminoethylsulfoxy)-4-(2-oxopyridin-1(2H)-yl)phenyl)-1H-1,2,3-triazol-4-yl)methyl)-5-chlorothiophene-2-carboxamide], at least 7.00.
